Laboratory results taken from ChEMBL document CHEMBL1201862, “PubChem BioAssay data set” (2004).
Activity calls are given as the source filed them.

Tests used:
Cytochrome P450 3A4 = Cytochrome P450 3A4 (Homo sapiens, UniProt P08684); settings: Potency;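 note: confirmatory qHTS run detecting inhibitors and substrates of CYP3A4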
[1] = molecular target: T1, Polyadenylate-binding protein 1 (Homo sapiens, UniProt P11940); assay: MLLE binding blockers, Cy5 peptide tracer – biochemical, fluorescence polarization, Cy5-PAM2 peptide, secondary, miRNA deadenylation inhibitor project, dose response (AID 602260); format: functional; settings: read-out: IC50_Mean
[2] = molecular target: T1, Polyadenylate-binding protein 1; assay: MLLE domain peptide-binding blockers, IC50 – biochemical, fluorescence polarization, FITC-PAM2 peptide, dose response (AID 602259); format: functional; settings: read-out: IC50_Mean
Kallikrein-7 = Kallikrein-7 (Homo sapiens, UniProt P49862); assay: Fluorescence Intensity-based biochemical primary high throughput dose response assay to identify activators of kallikrein-7 (K7) zymogen.
[3] = reduction of Shn3 3'UTR-driven luciferase in osteoblasts – cell-based, Clone20 osteoblasts, firefly luciferase, cherry-picked, dose response (AID 624132); format: functional;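 note: firefly luciferase luminescence from reporter carrying the Shn3 3'UTR in osteoblasts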
[4] = loss of viability in HepG2 cells – cell-based, CellTiter-Glo, cherry-picked, cytotoxicity control for Shn3 inhibitor project, dose response (AID 624134); format: functional
[5] = non-specific 3'UTR reporter inhibition in Clone20-Shn3RL – cell-based, Renilla luciferase, cherry-picked, counter-screen for Shn3 inhibitor project, dose response (AID 624133); format: functional
[6] = molecular target: Voltage-dependent T-type calcium channel subunit alpha-1H (Homo sapiens, UniProt O95180); format: functional;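 note: channel activity triggered by adding a high calcium stimulation buffer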
Aminopeptidase N = molecular target: T2, Aminopeptidase N (Plasmodium falciparum FcB1/Columbia, UniProt O96935); assay: malaria alanyl aminopeptidase activity blockers – biochemical, fluorogenic H-Leu-NHMec substrate, 1536-well (AID 1445); parameters: species or system Plasmodium falciparum 3D7, 3D7
T2 sequence (O96935 whole entry): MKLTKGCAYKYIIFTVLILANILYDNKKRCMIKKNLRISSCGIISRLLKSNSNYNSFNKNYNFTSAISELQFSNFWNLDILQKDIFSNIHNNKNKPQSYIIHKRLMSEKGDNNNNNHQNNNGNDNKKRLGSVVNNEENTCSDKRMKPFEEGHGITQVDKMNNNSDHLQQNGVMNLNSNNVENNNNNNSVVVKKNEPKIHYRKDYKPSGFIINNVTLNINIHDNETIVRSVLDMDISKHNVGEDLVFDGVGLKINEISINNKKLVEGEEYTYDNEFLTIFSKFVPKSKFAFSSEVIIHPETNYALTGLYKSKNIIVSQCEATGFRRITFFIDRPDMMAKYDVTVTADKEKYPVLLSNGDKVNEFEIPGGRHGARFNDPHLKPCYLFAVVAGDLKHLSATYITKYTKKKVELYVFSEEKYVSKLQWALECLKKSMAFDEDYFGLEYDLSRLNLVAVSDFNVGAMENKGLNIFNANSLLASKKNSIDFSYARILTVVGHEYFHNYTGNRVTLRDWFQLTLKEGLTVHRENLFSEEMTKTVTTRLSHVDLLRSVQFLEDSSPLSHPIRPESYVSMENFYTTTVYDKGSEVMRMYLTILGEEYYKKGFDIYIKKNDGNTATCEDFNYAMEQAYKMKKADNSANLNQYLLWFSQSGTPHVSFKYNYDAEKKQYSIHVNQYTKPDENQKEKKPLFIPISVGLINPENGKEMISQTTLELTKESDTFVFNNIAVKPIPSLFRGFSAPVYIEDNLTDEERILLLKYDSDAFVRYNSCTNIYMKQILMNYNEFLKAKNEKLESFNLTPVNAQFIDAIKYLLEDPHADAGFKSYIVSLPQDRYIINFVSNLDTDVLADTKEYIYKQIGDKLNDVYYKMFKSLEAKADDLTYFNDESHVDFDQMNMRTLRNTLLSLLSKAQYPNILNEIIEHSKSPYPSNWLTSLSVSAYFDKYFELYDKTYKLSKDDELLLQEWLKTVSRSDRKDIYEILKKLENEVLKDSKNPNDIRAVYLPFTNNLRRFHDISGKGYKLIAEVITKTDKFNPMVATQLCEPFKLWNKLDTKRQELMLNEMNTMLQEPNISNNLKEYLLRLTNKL

[7] = molecular target: T3, Corticotropin-releasing factor receptor 2/Corticotropin-releasing factor-binding protein (Homo sapiens, UniProt P24387+Q13324); assay: Dose Response confirmation of uHTS hits for small molecule antagonists of the CRF-binding protein and CRF-R2 receptor complex.; format: functional; settings: read-out: IC50_Mean
T3 sequence (Q13324 whole entry): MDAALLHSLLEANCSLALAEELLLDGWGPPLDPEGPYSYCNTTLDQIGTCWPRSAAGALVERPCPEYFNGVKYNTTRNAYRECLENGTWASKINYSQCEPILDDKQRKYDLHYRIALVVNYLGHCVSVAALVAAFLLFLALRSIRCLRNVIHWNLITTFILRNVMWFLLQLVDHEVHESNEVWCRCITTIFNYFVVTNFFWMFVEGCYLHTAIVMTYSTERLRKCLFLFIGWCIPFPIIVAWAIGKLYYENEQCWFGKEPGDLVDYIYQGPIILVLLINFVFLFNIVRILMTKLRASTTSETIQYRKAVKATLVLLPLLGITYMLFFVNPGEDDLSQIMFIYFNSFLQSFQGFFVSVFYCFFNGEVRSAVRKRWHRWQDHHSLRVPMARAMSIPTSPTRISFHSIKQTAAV
T3 sequence (P24387 whole entry): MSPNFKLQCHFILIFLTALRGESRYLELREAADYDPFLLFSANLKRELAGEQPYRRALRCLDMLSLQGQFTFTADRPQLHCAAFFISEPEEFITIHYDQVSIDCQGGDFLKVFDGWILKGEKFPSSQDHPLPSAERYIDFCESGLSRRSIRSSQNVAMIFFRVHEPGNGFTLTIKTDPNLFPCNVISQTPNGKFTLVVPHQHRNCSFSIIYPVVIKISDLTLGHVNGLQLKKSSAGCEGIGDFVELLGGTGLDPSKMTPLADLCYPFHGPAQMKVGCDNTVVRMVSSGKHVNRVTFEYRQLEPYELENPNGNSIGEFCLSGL

[8] = molecular target: T3, Corticotropin-releasing factor receptor 2/Corticotropin-releasing factor-binding protein; assay: activators of CRF receptor 2 with binding protein – uHTS hits, confirmation (AID 602473); format: functional; settings: read-out: EC50_Mean
[9] = A cytotoxicity screen of small molecule inhibitors of the PhoP region in Salmonella typhi identified in the primary screen. [Related pubchem assays: 1850, 1864, 1985 ]; format: functional
[10] = molecular target: Eukaryotic translation initiation factor 4E (Mus musculus, UniProt P63073); assay: blockers of eIF4G binding by eIF4E – biochemical, TR-FRET, dose response (AID 855); format: functional;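 note: potency for disrupting eIF4E binding to eIF4GI seen as loss of FRET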
Paired box protein Pax-8 = Paired box protein Pax-8 (Homo sapiens, UniProt Q06710); assay: PAX8 transcriptional activity inhibition in RMG-I – RMG-I cells, luciferase, cherry-pick, dose response (AID 687027); format: functional, cell-based;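 note: luciferase reporter driven by Pax8 target thyroperoxidase promoter measured by SteadyGlo luminescence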
[11] = OVCAR-3 cell viability loss – plate reader, dry powder samples, PAX8 inhibitor project, dose response (AID 743044); format: functional, cell-based
[12] = OVCAR8 cell viability loss – plate reader, dry powder samples, PAX8 project, dose response (AID 743197); format: functional, cell-based; settings: OVCAR-8

Kallikrein-7, sequence (P49862 whole entry): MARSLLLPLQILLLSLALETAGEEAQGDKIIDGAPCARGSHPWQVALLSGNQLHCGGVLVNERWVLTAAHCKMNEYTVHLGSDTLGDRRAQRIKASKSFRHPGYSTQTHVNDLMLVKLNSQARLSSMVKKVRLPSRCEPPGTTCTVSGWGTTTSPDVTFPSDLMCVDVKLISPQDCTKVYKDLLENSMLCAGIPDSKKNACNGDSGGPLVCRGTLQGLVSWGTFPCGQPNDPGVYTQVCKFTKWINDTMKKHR
Voltage-dependent T-type calcium channel subunit alpha-1H, sequence (O95180 whole entry): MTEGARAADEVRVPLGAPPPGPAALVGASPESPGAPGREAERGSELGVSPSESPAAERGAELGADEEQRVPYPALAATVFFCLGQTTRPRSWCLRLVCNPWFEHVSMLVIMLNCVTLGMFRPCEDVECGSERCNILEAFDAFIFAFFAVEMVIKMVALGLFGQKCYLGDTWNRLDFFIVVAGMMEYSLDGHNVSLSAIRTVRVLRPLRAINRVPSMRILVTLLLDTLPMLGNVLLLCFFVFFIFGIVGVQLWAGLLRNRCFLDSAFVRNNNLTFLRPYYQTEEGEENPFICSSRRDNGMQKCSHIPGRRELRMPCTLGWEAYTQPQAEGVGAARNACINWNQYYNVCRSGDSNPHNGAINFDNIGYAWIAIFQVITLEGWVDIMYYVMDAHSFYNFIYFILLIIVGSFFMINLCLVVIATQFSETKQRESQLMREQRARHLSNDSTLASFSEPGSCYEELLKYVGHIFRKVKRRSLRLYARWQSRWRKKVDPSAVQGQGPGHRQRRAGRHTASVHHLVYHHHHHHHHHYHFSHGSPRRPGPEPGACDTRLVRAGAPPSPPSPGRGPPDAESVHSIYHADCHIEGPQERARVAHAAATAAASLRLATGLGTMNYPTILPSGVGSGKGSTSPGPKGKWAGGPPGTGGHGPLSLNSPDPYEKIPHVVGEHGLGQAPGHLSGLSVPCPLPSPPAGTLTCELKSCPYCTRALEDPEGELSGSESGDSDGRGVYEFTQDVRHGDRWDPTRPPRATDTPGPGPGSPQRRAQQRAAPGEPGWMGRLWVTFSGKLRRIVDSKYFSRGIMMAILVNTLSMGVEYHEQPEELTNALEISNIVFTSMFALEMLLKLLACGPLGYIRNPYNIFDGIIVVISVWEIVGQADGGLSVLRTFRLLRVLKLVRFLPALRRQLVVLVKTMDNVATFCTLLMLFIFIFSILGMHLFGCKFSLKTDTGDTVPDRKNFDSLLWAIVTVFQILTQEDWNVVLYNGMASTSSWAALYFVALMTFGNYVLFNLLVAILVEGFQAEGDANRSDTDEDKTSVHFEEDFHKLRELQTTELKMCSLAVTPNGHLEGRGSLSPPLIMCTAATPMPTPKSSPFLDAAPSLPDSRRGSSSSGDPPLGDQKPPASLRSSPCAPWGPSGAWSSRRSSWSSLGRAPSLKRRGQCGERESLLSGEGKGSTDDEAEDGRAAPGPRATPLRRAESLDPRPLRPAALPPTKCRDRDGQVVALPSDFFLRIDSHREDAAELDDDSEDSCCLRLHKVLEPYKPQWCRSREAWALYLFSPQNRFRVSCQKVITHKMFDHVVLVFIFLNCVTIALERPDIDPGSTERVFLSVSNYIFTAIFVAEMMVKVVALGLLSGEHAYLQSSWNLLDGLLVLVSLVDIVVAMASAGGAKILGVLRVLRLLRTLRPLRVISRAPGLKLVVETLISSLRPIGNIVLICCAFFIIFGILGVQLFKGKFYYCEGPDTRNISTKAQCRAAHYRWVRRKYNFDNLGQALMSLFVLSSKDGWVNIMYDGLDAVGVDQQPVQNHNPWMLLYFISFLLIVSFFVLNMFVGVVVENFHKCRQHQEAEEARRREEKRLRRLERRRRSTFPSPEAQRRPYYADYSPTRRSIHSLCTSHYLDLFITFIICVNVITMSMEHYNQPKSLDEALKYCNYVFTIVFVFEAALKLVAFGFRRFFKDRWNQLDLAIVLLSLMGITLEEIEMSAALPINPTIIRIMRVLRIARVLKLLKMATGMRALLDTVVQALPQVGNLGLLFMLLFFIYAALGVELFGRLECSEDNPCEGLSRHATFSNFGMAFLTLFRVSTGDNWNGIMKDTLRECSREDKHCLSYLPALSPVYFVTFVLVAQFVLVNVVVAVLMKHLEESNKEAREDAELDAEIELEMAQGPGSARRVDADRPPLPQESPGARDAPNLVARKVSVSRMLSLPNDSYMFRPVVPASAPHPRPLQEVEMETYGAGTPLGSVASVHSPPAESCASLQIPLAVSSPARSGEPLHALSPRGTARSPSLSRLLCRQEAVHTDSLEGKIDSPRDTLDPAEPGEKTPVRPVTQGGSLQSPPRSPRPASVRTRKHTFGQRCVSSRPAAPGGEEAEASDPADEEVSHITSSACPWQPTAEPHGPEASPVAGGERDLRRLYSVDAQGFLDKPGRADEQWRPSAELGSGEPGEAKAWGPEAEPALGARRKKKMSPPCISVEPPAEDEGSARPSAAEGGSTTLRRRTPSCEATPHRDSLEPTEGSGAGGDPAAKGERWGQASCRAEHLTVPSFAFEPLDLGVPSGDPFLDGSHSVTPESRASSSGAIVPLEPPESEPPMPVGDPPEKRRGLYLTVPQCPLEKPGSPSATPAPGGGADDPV
T1 sequence (P11940 whole entry, the tested form may be a part): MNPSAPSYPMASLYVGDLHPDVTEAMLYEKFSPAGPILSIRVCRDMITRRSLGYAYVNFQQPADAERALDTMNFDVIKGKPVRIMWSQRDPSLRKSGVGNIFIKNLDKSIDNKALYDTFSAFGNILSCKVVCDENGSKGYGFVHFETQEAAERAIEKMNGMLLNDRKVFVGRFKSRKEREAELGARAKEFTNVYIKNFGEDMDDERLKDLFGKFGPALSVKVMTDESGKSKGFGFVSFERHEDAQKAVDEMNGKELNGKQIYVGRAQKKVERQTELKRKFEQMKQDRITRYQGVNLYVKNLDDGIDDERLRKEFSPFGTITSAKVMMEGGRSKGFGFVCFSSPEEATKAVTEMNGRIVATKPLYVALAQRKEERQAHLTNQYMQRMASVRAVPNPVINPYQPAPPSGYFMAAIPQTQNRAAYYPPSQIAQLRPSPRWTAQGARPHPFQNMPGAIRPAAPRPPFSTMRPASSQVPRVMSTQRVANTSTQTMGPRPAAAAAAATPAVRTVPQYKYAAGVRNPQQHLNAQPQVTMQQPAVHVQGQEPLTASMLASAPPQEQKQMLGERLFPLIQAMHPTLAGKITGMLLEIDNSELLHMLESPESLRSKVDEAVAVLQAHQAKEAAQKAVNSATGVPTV
Cytochrome P450 3A4, sequence (P08684 whole entry): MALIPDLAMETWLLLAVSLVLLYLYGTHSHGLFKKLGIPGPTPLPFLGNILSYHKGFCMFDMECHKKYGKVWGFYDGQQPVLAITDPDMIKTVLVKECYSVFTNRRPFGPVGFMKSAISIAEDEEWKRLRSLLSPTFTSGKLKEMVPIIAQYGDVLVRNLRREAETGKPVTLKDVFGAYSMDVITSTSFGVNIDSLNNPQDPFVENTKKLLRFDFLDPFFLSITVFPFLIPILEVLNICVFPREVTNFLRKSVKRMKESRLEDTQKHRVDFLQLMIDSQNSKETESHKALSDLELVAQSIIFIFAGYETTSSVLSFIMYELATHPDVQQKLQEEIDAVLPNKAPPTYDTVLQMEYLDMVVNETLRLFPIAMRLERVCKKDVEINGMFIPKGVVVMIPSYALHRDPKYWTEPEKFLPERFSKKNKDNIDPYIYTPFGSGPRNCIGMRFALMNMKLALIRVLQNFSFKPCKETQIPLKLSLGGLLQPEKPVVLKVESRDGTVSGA
Eukaryotic translation initiation factor 4E, sequence (P63073 whole entry): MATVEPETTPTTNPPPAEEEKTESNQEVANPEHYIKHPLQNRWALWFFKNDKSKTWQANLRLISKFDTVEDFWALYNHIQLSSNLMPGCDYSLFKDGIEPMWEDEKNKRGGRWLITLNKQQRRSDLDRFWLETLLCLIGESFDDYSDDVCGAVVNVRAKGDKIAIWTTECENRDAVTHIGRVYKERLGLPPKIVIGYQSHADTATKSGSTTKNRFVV
Paired box protein Pax-8, sequence (Q06710 whole entry): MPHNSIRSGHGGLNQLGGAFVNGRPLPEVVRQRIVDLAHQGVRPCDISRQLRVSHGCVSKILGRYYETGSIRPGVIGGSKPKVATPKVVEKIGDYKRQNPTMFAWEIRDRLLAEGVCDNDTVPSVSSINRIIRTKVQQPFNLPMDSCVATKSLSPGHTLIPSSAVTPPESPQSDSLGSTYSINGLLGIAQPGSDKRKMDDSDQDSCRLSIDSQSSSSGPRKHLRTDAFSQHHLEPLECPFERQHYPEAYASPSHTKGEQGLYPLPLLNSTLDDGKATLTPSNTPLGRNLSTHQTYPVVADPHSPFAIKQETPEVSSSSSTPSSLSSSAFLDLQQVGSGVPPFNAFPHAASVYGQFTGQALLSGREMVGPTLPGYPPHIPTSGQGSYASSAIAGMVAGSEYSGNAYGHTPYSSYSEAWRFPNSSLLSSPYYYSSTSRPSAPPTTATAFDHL

Q: With `C[C@@H]1O[C@@H](O[C@@H]2[C@@H](O)[C@H](OCCc3ccc(O)c(O)c3)O[C@H](CO[C@@H]3O[C@H](CO)[C@@H](O)[C@H](O)[C@H]3O)[C@H]2OC(=O)/C=C/c2ccc(O)c(O)c2)[C@H](O)[C@H](O)[C@H]1O` as the compound, how does the AC50 (Cytochrome P450 3A4) read?
A: 7.94 µM (inconclusive)

Q: Which IC50 [1] does the source give for `CN1C=CC2=C(C#N)C(N)C(C#N)(C#N)[C@H](c3ccccc3)[C@H]2C1` (some centres not stated) here?
A: > 66 µM (inactive)

Q: What about the IC50 [2] of the same compound?
A: 58.9 µM (inactive)

Q: And the EC50 (Kallikrein-7)?
A: > 69.5 µM (inactive)

Q: For `CCOC(=O)C1CCN(c2[nH]cnc3c4c(OC)cccc4nc2-3)CC1`, which EC50 (Kallikrein-7) is on record?
A: 8.33 µM (active)

Q: Which AC50 (Cytochrome P450 3A4) does the source give for `CCCCCCN(C(=O)CCCCCN1C(=O)NC(c2ccc(-c3ccccc3)cc2)C(C(=O)OCc2ccccc2)=C1C)C(C(=O)NCCCC)c1cccc(C(=O)OC)c1` (configuration not stated) here?
A: 2.51 µM (inconclusive)

Q: Which AC50 [3] does the source give for `CCC(CC)CC1CN2CCc3cc(OC)c(OC)cc3C2CC1(O)CC` (configuration not stated) here?
A: 2 µM (active)

Q: And the AC50 [4]?
A: > 70 µM (inactive)

Q: And the AC50 [5]?
A: 3.89 µM (active)

Q: What about the EC50 (Kallikrein-7) of the same compound?
A: 8.32 µM (active)

Q: For `CCN(CC)S(=O)(=O)c1cc(C(=O)Nc2ccc(Cl)cn2)ccc1C`, which EC50 [6] is on record?
A: 2.3 µM (active)

Q: For `Cc1ccc(-n2c(Cc3cccn3C)nnc2SCC(=O)Nc2ccc3c(c2)OCO3)cc1`, which EC50 [6] is on record?
A: 1.25 µM (active)

Q: Which results are given for `CC(=O)c1ccc(-c2cccs2)s1`?
A: IC50 (Aminopeptidase N): 40 µM (active); IC50 [7]: > 47.1 µM (inactive); EC50 [8]: > 53 µM (inactive)

Q: For `c1ccc2sc(N3CN(CCN4CCOCC4)CN(c4nc5ccccc5s4)C3)nc2c1`, which EC50 [9] is on record?
A: > 50 µM (active)

Q: And the EC50 [6]?
A: 5.23 µM (active)

Q: For `COc1ccc(O)c(/C=C(\C#N)C(=O)Nc2cccnc2)c1`, which IC50 [10] is on record?
A: > 64 µM (inactive)

Q: For `Cc1ccc(-c2nnn(C(C)C(=O)N3c4ccccc4CCc4ccccc43)n2)cc1` (configuration not stated), which EC50 [6] is on record?
A: 7.47 µM (active)

Q: With `O=C(Nc1ccccc1)N1CCCCN2[C@H](C1)[C@@H](c1ccc(C#Cc3ccccc3)cc1)[C@@H]2CO` as the compound, how does the AC50 (Paired box protein Pax-8) read?
A: 10.5 µM (active)

Q: What about the AC50 [11] of the same compound?
A: 26 µM (active)

Q: And the AC50 [12]?
A: 26 µM (active)
